The values below come from patent publication US9151743B2, “Use of EEF1A as biomarker and a method of screening MetAP2 inhibitors” (MERCK PATENT GMBH, priority 2008, dated 2015).

Assay [1] deals with bEND3, HT1080, HCT116 cells (EEF1A1 Band 2). Put plainly: IEF separation of cellular extracts after MetAP2 inhibitor treatment, Coomassie Blue staining. Format: cell-based, mouse, human. To be noted: 100 nM TNP-470; 1 μM A-832234; versus DMSO-treated cells. As to the method:
(§1) Cellular extracts were electrophoretically separated for detailed analysis. Isoelectric focusing electrophoresis was performed in a gradient range of pH 7-9. The IEF gels (CleanGel IEF ultra ETC1001-52 from ETC, Germany) were re-hydrated in 7 M urea, 2 M thiourea, 1% DTE, 4% CHAPS, 3%, Servalyte 7-9 for 120 min, and assembled on a Multiphor II electrophoresis unit (GE Healthcare). Samples (5 μl) were applied close to the anode and run with anode buffer (6 M glycine) and cathode fluid 10 (Serva, Germany). […] Separation was performed at 2000 V for 210 min, followed by band sharpening at 2500 V for 10 min. After removal the gel was equilibrated in transfer buffer (50 mM Tris-HCl pH 7.5, 4 M guanidinium chloride, 1 mg/ml DTT) for a diffusion blot onto PVDF membrane and run overnight. Subsequently, the membrane was stained either with Coomassie Blue or immunostained with rabbit PcAb anti-human EEF1A1 (Proteintech Group, USA; 11402-1-AP) for 3 h and detected with ECL-Plus reagent (GE Healthcare).
IEF separation of cellular extracts after treatment of different endothelial and cancer cells (mouse: bEND3, human: HT1080, HCT116) was performed in a range of pH 7-9 (FIG. 1). Comparing extracts from DMSO-treated and MetAP2 inhibitor-treated (100 nM TNP-470; […] . A zoomed view is shown in FIG. 2.

The subject of a further assay is EEF1A1 in bEND3 cells. In words: EEF1A1 electrophoretic mobility shift in IEF gel, bEND3 cell extracts. It counts as cell-based, mouse. To be noted: for EEF1A1 mobility shift versus negative controls (FIG. 10): bEND3 cells, 48 h, concentrations of Table 1. The method, then: as §1
The compounds used were characterized as inhibitors of MetAP2 and inhibitors of HUVEC cell proliferation with the indicated potencies (IC50).
A general note: In EMSA bound probe runs differently from free probe, usually more slowly.

The test system of another assay is HUVEC endothelial cells. In words: Inhibition of HUVEC cell proliferation (colorimetric BrdU-Elisa). To be noted: Homo sapiens, 72 h, read-out: Inhibition of HUVEC proliferation (BrdU incorporation) (IC50). Background: Dividing cells build labelled thymidine or BrdU into new DNA.
The next assay deals with MetAP2 (Homo sapiens, UniProt P50579). In words: Inhibition of MetAP2 activity: cleavage of tripeptide Met-Ala-Ser, enzyme-coupled detection of methionine. Format: biochemical.
Sequence of MetAP2 (P50579 whole entry, species assumed): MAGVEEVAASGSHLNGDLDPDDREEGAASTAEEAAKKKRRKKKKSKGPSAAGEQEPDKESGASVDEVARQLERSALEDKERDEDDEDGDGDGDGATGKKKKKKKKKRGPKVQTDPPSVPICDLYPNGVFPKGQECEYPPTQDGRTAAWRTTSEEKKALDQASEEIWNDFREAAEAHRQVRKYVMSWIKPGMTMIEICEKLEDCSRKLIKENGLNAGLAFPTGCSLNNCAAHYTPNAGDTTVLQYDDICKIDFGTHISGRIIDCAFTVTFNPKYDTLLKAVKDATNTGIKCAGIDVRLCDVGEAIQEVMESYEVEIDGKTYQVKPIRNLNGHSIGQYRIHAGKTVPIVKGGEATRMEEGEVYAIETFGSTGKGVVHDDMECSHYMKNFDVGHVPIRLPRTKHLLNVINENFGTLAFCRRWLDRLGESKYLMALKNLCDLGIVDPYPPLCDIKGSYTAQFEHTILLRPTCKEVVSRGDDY

Molecules are shown by their SMILES. pIC50: −log10 of the molar value.

Description for HUVEC endothelial cells: In this case the compounds were incubated in serial dilutions with the HUVEC endothelial cells for 72 h and subsequently processed for BrdU detection.

As to `CCN(CC)C/C=C\c1cc(F)ccc1S(=O)(=O)Nc1ccc2c(c1C(=O)O)CCCC2` [Compound A-832234, 2-[2-((Z)-3-Diethylamino-propenyl)-4-fluoro-benzenesulfonylamino]-5,6,7,8-tetrahydro-naphthalene-1-carboxylic acid], in assay [1], the “new protein band (Band 2) after IEF pH 7-9” value is reported as “a novel protein band”. In the assay with EEF1A1 in bEND3 cells, the “EEF1A1 mobility shift versus negative controls (FIG. 10)” value is on record as “active MetAP2 inhibitors”.

Take `CO[C@@H]1[C@H](OC(=O)NC(=O)CCl)CC[C@]2(CO2)[C@H]1[C@@]1(C)O[C@@H]1CC=C(C)C` [TNP470]: the “new protein band (Band 2) after IEF pH 7-9” value in assay [1] is reported as “a novel protein band”. In the assay with EEF1A1 in bEND3 cells (bEND3 cell extract, TNP470, up to 48 h), the “EEF1A1 mobility shift, time course” value is “a second band (Band 2) with increasing intensity was already to be seen after 2 h”. Besides, in the assay with EEF1A1 in bEND3 cells, the “EEF1A1 mobility shift versus negative controls (FIG. 10)” value was “active MetAP2 inhibitors”. For the same compound, the pIC50 was 10.00 in the assay with HUVEC endothelial cells and 7.85 on MetAP2.
